Calls of active or inactive are those of the source. No cut-off for these calls is given here. Some results are limits rather than exact numbers.

Data set [1] addresses Adenosine receptor A2a (Homo sapiens, UniProt P29274). In words: Displacement of [3H]ZM-241385 from human adenosine A2A receptor expressed in HEK293 cells. Format: cell-based. (In general: In a radioligand displacement assay an active substance lowers the binding of a labelled ligand.)
The species named for a further data set is Homo sapiens. Kind of data set: Selectivity for human adenosine A2A receptor over human adenosine A1 receptor.
Data set [2] concerns the target Adenosine receptor A2a (Rattus norvegicus, UniProt P30543). Kind of data set: Activity at adenosine A2A receptor in rat PC12 cells assessed as intracellular cAMP accumulation. Format: functional, cell-based, PC-12. For orientation: cAMP levels reflect the balance of adenylyl cyclase and phosphodiesterase activity.
A short description of data set [3]: Metabolic stability in human liver microsomes assessed as intrinsic clearance. The class given is ADME, Microsome. Background: Liver microsomes are vesicles of endoplasmic reticulum, rich in cytochrome P450 enzymes.
A short description of data set [4]: Aqueous solubility at pH 8.0 by HPLC. The class given is physicochemical.
The target of a further data set is Cytochrome P450 2D6 (Homo sapiens, UniProt P10635). In words: Inhibition of CYP2D6. Format: ADME.
Cytochrome P450 2D6, sequence (P10635 whole entry): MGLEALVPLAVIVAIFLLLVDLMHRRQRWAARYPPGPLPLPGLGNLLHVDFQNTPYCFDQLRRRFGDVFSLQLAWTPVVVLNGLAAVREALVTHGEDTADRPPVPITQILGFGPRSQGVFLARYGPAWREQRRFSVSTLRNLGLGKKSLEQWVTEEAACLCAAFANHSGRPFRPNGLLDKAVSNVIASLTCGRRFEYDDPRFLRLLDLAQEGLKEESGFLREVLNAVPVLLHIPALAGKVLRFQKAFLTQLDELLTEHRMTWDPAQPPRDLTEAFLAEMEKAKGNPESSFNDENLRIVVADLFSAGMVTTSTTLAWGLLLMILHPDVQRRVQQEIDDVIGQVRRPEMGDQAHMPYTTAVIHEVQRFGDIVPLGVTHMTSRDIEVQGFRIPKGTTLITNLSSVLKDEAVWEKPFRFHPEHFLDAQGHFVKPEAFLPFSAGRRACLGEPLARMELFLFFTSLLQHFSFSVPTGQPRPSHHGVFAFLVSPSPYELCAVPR
Another data set deals with Cytochrome P450 3A4 (Homo sapiens, UniProt P08684). In words: Inhibition of CYP3A4. The class given is ADME.
Cytochrome P450 3A4, sequence (P08684 whole entry): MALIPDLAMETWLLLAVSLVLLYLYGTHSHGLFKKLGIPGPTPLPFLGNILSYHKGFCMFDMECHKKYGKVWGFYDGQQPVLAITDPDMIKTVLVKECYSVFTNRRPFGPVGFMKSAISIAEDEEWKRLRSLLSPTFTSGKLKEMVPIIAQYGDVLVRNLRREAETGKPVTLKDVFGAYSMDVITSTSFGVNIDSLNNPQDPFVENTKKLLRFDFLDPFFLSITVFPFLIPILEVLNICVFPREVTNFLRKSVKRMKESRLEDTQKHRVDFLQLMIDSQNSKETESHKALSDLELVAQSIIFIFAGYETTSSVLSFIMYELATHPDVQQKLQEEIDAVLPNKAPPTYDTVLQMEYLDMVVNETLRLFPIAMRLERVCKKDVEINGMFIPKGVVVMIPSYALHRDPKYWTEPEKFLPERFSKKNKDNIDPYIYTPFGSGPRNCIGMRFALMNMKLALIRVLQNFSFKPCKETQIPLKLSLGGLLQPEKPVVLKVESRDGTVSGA
In data set [5] the test system is Rattus norvegicus. In words: Inhibition of haloperidol-induced catalepsy in rat at 30 mg/kg, po. The class given is functional, organism-based. Also noted: dose 30 mg/kg.
The test system of data set [6] is Rattus norvegicus. Kind of data set: Inhibition of haloperidol-induced catalepsy in po dosed rat. The class given is functional. Particulars: read-out: MED.

Adenosine receptor A2a (Homo sapiens, UniProt P29274), sequence (P29274 whole entry): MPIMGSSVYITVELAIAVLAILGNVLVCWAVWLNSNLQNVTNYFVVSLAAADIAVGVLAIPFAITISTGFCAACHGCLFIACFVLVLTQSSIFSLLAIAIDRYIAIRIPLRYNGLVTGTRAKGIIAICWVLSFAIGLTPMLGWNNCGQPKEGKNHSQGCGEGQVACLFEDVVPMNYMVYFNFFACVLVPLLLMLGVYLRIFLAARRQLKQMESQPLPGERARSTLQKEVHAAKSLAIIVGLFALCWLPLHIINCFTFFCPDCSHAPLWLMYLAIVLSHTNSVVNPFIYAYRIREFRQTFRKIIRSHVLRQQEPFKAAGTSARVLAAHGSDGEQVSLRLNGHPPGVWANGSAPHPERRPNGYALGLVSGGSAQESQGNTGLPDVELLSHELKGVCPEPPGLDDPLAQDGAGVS
Adenosine receptor A2a (Rattus norvegicus, UniProt P30543), sequence (P30543 whole entry): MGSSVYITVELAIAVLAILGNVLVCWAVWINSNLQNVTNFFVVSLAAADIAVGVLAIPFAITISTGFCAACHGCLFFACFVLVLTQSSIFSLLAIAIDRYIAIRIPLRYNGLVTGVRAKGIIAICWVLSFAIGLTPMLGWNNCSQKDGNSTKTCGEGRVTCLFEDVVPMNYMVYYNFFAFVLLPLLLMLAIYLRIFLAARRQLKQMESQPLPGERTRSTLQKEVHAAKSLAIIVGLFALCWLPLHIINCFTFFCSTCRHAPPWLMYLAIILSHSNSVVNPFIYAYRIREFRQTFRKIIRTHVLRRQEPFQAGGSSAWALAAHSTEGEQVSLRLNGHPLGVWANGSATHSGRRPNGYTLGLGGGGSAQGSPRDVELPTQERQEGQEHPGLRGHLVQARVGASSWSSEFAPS

As for `CC(=O)Nc1cc(-c2cccc(C(F)(F)F)c2)nc(-n2nc(C)cc2C)n1`, at Adenosine receptor A2a [1], affinity was put at a Ki of 2 nM. Also, in the data set listed under Homo sapiens, the Ratio Ki is 40.

In the case of `CC(=O)Nc1cc(-c2cccc(OC3CCN(C)C3)c2)nc(-n2nc(C)cc2C)n1` (centres undefined), at Adenosine receptor A2a [1], affinity was put at a Ki of 2 nM. Besides, the IC50 (in general, the midpoint of a concentration-inhibition curve) on Adenosine receptor A2a [2] came to 42 nM. Besides, in the data set listed under Homo sapiens, the Ratio Ki worked out at 191. Besides, the intrinsic clearance (CLint scaled) (commonly the capacity of the preparation to metabolise the compound, expressed as a volume cleared per time) in [3] is 54 mL/min/kg. Also, the solubility (in general, the dissolved amount per volume that the medium holds) in data set [4] was over 4000 µg/mL.

In the case of `CC(=O)Nc1cc(-c2cccc(C#N)c2)nc(-n2nc(C)cc2C)n1`, the inhibition constant Ki (commonly the equilibrium dissociation constant of an inhibitor or competing ligand from its target) at Adenosine receptor A2a [1] was found to be 2 nM. Further, the Ratio Ki in the data set listed under Homo sapiens stood at 10.

In the case of `CC(=O)Nc1cc(-c2cc(C)ccc2C)nc(-n2nc(C)cc2C)n1`, affinity on Adenosine receptor A2a [1] was put at a Ki of 19 nM. In addition, the Ratio Ki in the data set filed under Homo sapiens was found to be 46.

`CN1CCN(CC(=O)Nc2cc(-n3cccn3)nc(-c3ccco3)n2)CC1`: at Adenosine receptor A2a [1], the Ki was found to be 3 nM.

As for `CC(=O)Nc1cc(-c2cccc(CO[C@@H]3CCN(C)C3)c2)nc(-n2nc(C)cc2C)n1`, the Ki on Adenosine receptor A2a [1] amounted to 67 nM. Besides, in the data set listed under Homo sapiens, the Ratio Ki is 99.

On Adenosine receptor A2a [1], `COc1cccc(-c2cc(NC(C)=O)nc(-n3nc(C)cc3C)n2)c1` gave a Ki of 1 nM. The Ratio Ki in the data set listed under Homo sapiens was 72.

For `CC(=O)Nc1cc(-c2cc(F)cc(O[C@H]3CCN(C)C3)c2)nc(-n2nc(C)cc2C)n1`, affinity at Adenosine receptor A2a [1] was put at a Ki of 1 nM. Further, the IC50 at Adenosine receptor A2a [2] is 15 nM. Moreover, in the data set listed under Homo sapiens, the Ratio Ki came to 218. Further, the Activity entry at Cytochrome P450 2D6 and on Cytochrome P450 3A4 was “Not Active” each time. Moreover, in data set [3], the CLint scaled was 3 mL/min/kg. In data set [4], this compound registered a solubility of over 4000 µg/mL. Besides, the result in the data set on Rattus norvegicus [5] was Active.

For the compound `CC(=O)Nc1cc(-c2ccccc2)nc(-n2nc(C)cc2C)n1`, at Adenosine receptor A2a [1], the affinity, expressed as Ki, was 87 nM. For the same compound, the Ratio Ki in the data set filed under Homo sapiens was found to be 7.

For `CC(=O)Nc1cc(-c2cccc(C)c2)nc(-n2nc(C)cc2C)n1`, at Adenosine receptor A2a [1], the Ki worked out at 7 nM. For the same compound, the Ratio Ki in the data set filed under Homo sapiens was 59.

For `CC(=O)Nc1cc(-c2cccc(O)c2)nc(-n2nc(C)cc2C)n1`, the affinity on Adenosine receptor A2a [1], expressed as Ki, was 2 nM. Also, in the data set filed under Homo sapiens, the Ratio Ki was 74.

At Adenosine receptor A2a [1], `CC(=O)Nc1cc(-c2cccc(O[C@H]3CCN(C)C3)c2)nc(-n2nc(C)cc2C)n1` returned a Ki of 2 nM. Moreover, in the data set listed under Homo sapiens, the Ratio Ki came to 320.

`COc1ccc(-c2cc(NC(C)=O)nc(-n3nc(C)cc3C)n2)cc1` displayed an inhibition constant (Ki) on Adenosine receptor A2a [1] of 17 nM. Further, in the data set listed under Homo sapiens, the Ratio Ki came out at 44.

Turning to `CC(=O)Nc1cc(-c2cccc(CO[C@H]3CCN(C)C3)c2)nc(-n2nc(C)cc2C)n1`, the affinity at Adenosine receptor A2a [1] corresponds to a Ki of 73 nM. In the data set listed under Homo sapiens, the Ratio Ki was 102.

Consider `CC(=O)Nc1cc(-c2cccc(OC3CCN(C)CC3)c2)nc(-n2nc(C)cc2C)n1`, for which the affinity on Adenosine receptor A2a [1], expressed as Ki, was 6 nM. In addition, the Ratio Ki in the data set listed under Homo sapiens stood at 146.

In turn, `CCN1CCC(Oc2cccc(-c3cc(NC(C)=O)nc(-n4nc(C)cc4C)n3)c2)C1` (centres undefined) registered a Ki on Adenosine receptor A2a [1] of 3 nM. For the same compound, the Ratio Ki in the data set listed under Homo sapiens was determined as 168.

On Adenosine receptor A2a [1], `CC(=O)Nc1cc(-c2cc(C)cc(C)c2)nc(-n2nc(C)cc2C)n1` gave a Ki of 8 nM. The Ratio Ki in the data set filed under Homo sapiens was found to be 43.

Consider `COc1ccccc1-c1cc(NC(C)=O)nc(-n2nc(C)cc2C)n1`, for which the affinity at Adenosine receptor A2a [1], expressed as Ki, was 2 nM. Further, the Ratio Ki in the data set listed under Homo sapiens turned out to be 71.

The compound `CC(=O)Nc1cc(-c2cccc(CC#N)c2)nc(-n2nc(C)cc2C)n1` yielded a Ki on Adenosine receptor A2a [1] of 2 nM. Further, the Ratio Ki in the data set listed under Homo sapiens was found to be 50.

In the case of `CC(=O)Nc1cc(-c2cccc(OC3CCN(C(C)C)C3)c2)nc(-n2nc(C)cc2C)n1` (centres undefined), the Ki at Adenosine receptor A2a [1] was 3 nM. In addition, the Ratio Ki in the data set listed under Homo sapiens amounted to 167.

As to `CC(=O)Nc1cc(-c2cccc(OCCN(C)C)c2)nc(-n2nc(C)cc2C)n1`, at Adenosine receptor A2a [1], the affinity corresponds to a Ki of 5 nM. Further, the Ratio Ki in the data set filed under Homo sapiens was determined as 134. This compound also yielded a solubility in [4] of over 4000 µg/mL.

In turn, `CC(=O)Nc1cc(-c2cccc(O[C@@H]3CCN(C)C3)c2)nc(-n2nc(C)cc2C)n1` yielded a Ki on Adenosine receptor A2a [1] of 4 nM. Further, in the data set filed under Homo sapiens, the Ratio Ki was determined as 145.

The compound `CC(=O)Nc1cc(-c2cc(O)cc(F)c2)nc(-n2nc(C)cc2C)n1` displayed a Ki on Adenosine receptor A2a [1] of 2 nM. Further, the Ratio Ki in the data set listed under Homo sapiens came to 54.

At Adenosine receptor A2a [1], `CC(=O)Nc1cc(-c2cccc(OC3CCCN(C)C3)c2)nc(-n2nc(C)cc2C)n1` (centres undefined) came in with an inhibition constant (Ki) of 1 nM. In the data set filed under Homo sapiens, the Ratio Ki came to 203.

`COc1cc(OC)cc(-c2cc(NC(C)=O)nc(-n3nc(C)cc3C)n2)c1` had a Ki on Adenosine receptor A2a [1] of 0.2 nM. In addition, the IC50 at Adenosine receptor A2a [2] was 29 nM. In addition, the minimal effective dose with Rattus norvegicus [6] is 1 mg/kg. For the same compound, the Ratio Ki in the data set listed under Homo sapiens amounted to 111. Further, the Activity entry at Cytochrome P450 3A4 (TDE = time-dependent effect) is reported as “tde”. For the same compound, in [4], the solubility was under 100 µg/mL.

`CC(=O)Nc1cc(-c2cc(F)cc(OC3CCN(C)C3)c2)nc(-n2nc(C)cc2C)n1` (centres undefined): the inhibition constant Ki on Adenosine receptor A2a [1] came to 1 nM. In addition, in the data set filed under Homo sapiens, the Ratio Ki amounted to 135. Also, the CLint scaled in data set [3] was found to be 3 mL/min/kg.

For the compound `CC(=O)Nc1cc(-c2cc(F)cc(F)c2)nc(-n2nc(C)cc2C)n1`, at Adenosine receptor A2a [1], affinity was put at a Ki of 4 nM. Moreover, the Ratio Ki in the data set filed under Homo sapiens turned out to be 64.

Turning to `COc1c(F)cccc1-c1cc(NC(C)=O)nc(-n2nc(C)cc2C)n1`, the affinity at Adenosine receptor A2a [1] corresponds to a Ki of 3 nM. Also, the Ratio Ki in the data set filed under Homo sapiens came to 164. The same compound gave a solubility in [4] of under 100 µg/mL.

As for `CC(=O)Nc1cc(-c2cc(F)cc(O[C@@H]3CCN(C)C3)c2)nc(-n2nc(C)cc2C)n1`, on Adenosine receptor A2a [1], the inhibition constant Ki was 2 nM. Moreover, in the data set listed under Homo sapiens, the Ratio Ki is 125. Also, in data set [3], the CLint scaled was 3 mL/min/kg.
